From US20110224300A1, “USE OF POTASSIUM 2-(a- HYDROXYPENTYL) BENZOATE IN THE MANUFACTURE OF MEDICAMENTS FOR PREVENTING AND/OR TREATING SENILE [sequence]” (Institute of Mataria Medica, Chinese Academy of Me, priority 2008, published 2011) come the findings set out here.

The test system of assay [1] is permanent 2-VO rats (chronic cerebral hypoperfusion). The assay is described as follows: Morris water maze in permanent 2-VO (BCCAO) rats. The format is in vivo, rat. The note with it: Piracetam 600 mg/kg. From the text:
Chronic cerebral hypoperfusion was proceeded by a permanent, bilateral occlusion of the common carotid arteries (2-VO) of adult rats. The rats were anesthetized with 10% trichloro-acetaldehyde, and temperature probe was inserted into the rectum, and a separate heating lamp was used to maintain rectal temperature at normothermic level. After a midline neck skin incision, the common carotid artery were exposed and ligated by a 5-0 nylon suture.
Rats were randomly divided into six experimental groups (20 rats/each group): one sham-operated group, one vehicle control group, one piracetam-treated group (600 mg/kg), and three dl-PHPB-treated groups (13, 39, and 129 mg/kg). In 10 days after onset of 2-VO, drugs and vehicle were administered orally to rats for 21 days (one time/each day). The spatial learning and memory capability of rats were detected by Morris water maze in the 25-30 days after operation. The Morris water test was commenced at 40 min after drugs treated. The biochemical and pathology assays were conducted later (in 24 h) after behavioral tests.
Subjects were tested in a Morris water maze. This test is based on a standardized assessment of spatial learning ability. The water maze apparatus consisted of a circular, stainless pool (120 cm in diameter, 60 cm in height). It was placed in a dimly lit, sound-proof test room. Multiple distant cues around the room (window, cabinets, furniture) were kept in the same location throughout the experiments. The water was filled to a depth of 40 cm at 25±1° C. and was made opaque by adding milk powder to prevent visualization of the platform. A transparent platform (10 cm diameter) was put 1.5 cm below the surface of the water. The tank was divided into four quadrants with the platform in a fixed position in one quadrant. The subjects were placed into the maze facing the pool wall and were allowed two trials per day, 60 s per trial, to find the hidden platform. If the subject found the platform within the 60 s, it was given a 10-s rest period on the platform between trials. If the pedestal was not located within the time allotted, the subject was placed on to the platform and allowed 10 s until the next trial. The escape latency (time to reach the platform) was used to assess acquisition of the water maze task. Sessions were repeated for five consecutive days. On the sixth day, the platform was removed and the rat was allowed to search for the platform for 60 s (probe test). The time in the platform quadrant and latency time to cross platform location were recorded to measure the spatial learning ability without the influence of chance encounters with the platform. The Morris water maze sessions were recorded with a video camera for offline analysis.

Another assay has as its system GFAP. As to the kind of experiment: GFAP immunohistochemistry, activated astrocytes of 2-VO rats. The format is in vivo, rat. How it is done:
The method for tissue fixation was described above. Serial coronal sections (40 μm) of the brains were cut through the dorsal hippocampus on a freezing microtome and collected in 6-well plates containing 0.01 M PBS. The detection of GFAP and BDNF immunoreactivity was performed using a conventional avidin-biotin-immunoperoxidease technique.
For quantitative analysis, one from every five samples in a continuous series of hippocampal or cortical tissue sections was taken, and was processed immunohistochemically. Thus, three slides were taken from each rat, and were read under an objective (×1.6) microscope. The total area of positively stained neurons was counted with Image-pro Plus 5.0 software.
Cerebral damage caused by hypoperfusion may be the basis for spatial learning and memory impairment, including earliest white matter damage, accompanied by an increase of astrocytes and microglia activation. Glial fibrillary acidic protein (GFAP) immunohistochemical staining can be used to label the activated astrocytes. 2-3 photos were taken from each selected slices in the same regions. The number of the GFAP positive astrocytes was calculated as the average value of the region. Four anatomical regions were selected to observe: the cortex, hippocampus, corpus callosum and optic tract.

[2] abbreviates: 1st of 5 M/R/T/L column groups (day not printed).
Where [3] appears, read: 2nd of 5 M/R/T/L column groups (day not printed).
Setting [4] is: 3rd of 5 M/R/T/L column groups (day not printed).
Where [5] appears, read: 4th of 5 M/R/T/L column groups (day not printed).
Where [6] appears, read: 5th of 5 M/R/T/L column groups (day not printed).

`NC(=O)CN1CCCC1=O` [Piracetam, reference compound]: the “search strategy times, linear mode (L)” value amounted to 1 in assay [1] (setting [2]); 8 in assay [1] (setting [3]); 10 in assay [1] (setting [4]); 10 in assay [1] (setting [5]); 19 in assay [1] (setting [6]). Besides, the “search strategy times, marginal mode (M)” value was 10 in assay [1] (setting [2]); 3 in assay [1] (setting [3]); 1 in assay [1] (setting [4]); 1 in assay [1] (setting [5]); 1 in assay [1] (setting [6]). The “search strategy times, random mode (R)” value in assay [1] (setting [2]) was 15; in assay [1] (setting [3]), 11; in assay [1] (setting [4]), 6; in assay [1] (setting [5]), 7; in assay [1] (setting [6]), 8. The “search strategy times, tendency mode (T)” value in assay [1] (setting [2]) is 14; in assay [1] (setting [3]), 17; in assay [1] (setting [4]), 23; in assay [1] (setting [5]), 23; in assay [1] (setting [6]) it was 12. The “GFAP-positive cells in the optic tract” value in the assay on GFAP (Piracetam, 21 days) was “significantly less than the vehicle group”. Besides, the “GFAP-positive cells in the hippocampus” value with GFAP (administration of 21 days, P<0.05 or P<0.01) is reported as “significantly less than in the vehicle group”. Also, the “GFAP-positive cells in the cortex” value with GFAP (administration of 21 days, in particular dl-PHPB 39 mg/kg (P<0.01)) is on record as “significantly less than in the vehicle group”.
